Assays:
[1] = test system: porcine right coronary artery; assay: Assay of vascular smooth muscle constrictor activity (isometric tension of intima-denuded artery spiral specimens); details: assay (1); purified compound I from porcine aortic endothelial cell culture supernatant; Krebs-Ringer solution, 37° C.
Method: Porcine right coronary artery spiral specimens (2×20 mm) with the intima denuded by rubbing with a small swab are suspended in 3 ml of Krebs-Ringer solution maintained at 37° C. and saturated with the mixed gas containing 5% carbon dioxide and 95% oxygen by volume. After setting the basal tension to 1 g, the isometric tension is measured with tension transducers.
(§1) The activity of the compound I obtained in 2 (iii) above was assayed by the method of Reference Example (1) and (2).

[2] = test system: guinea pig right atrium; assay: Assay of cardiotonic action (tension and heart rate of suspended right atrium specimens); details: assay (2); purified compound I from porcine aortic endothelial cell culture supernatant
Method: Instead of the porcine right coronary artery spiral specimens used in the assay described in the above item (1), guinea pig right atrium suspended specimens are used, and the tension and the heart rate per minute are measured according to the same procedure as described in (1). (3) ED50
as §1

CC[C@H](C)[C@H](NC(=O)[C@H](CC(=O)O)NC(=O)[C@H](CC(C)C)NC(=O)[C@H](Cc1c[nH]cn1)NC(=O)[C@@H]1CSSC[C@H](N)C(=O)N[C@@H](CO)C(=O)N[C@H]2CSSC[C@H](NC(=O)[C@H](CCC(=O)O)NC(=O)[C@H](CCCCN)NC(=O)[C@H](CC(=O)O)NC(=O)[C@H](CCSC)NC(=O)[C@H](CC(C)C)NC(=O)[C@H](CO)NC(=O)[C@H](CO)NC2=O)C(=O)N[C@@H](C(C)C)C(=O)N[C@@H](Cc2ccc(O)cc2)C(=O)N[C@@H](Cc2ccccc2)C(=O)N1)C(=O)N[C@H](C(=O)N[C@@H](Cc1c[nH]c2ccccc12)C(=O)O)[C@@H](C)CC [compound I]
ED50 for smooth muscle constrictor activity to porcine coronary artery [1]: 4 to 5×10^-10 mole/l | ED50 for cardiotonic action to guinea pig right atrium [2]: 1 nM

Reference: patent US4981950A, “Vasoconstrictor peptide” (Takeda Chemical Ind., Ltd., priority 1987, dated 1991)
